According to US20190352276A1, “INHIBITORS OF BRUTON'S TYROSINE KINASE” (Joint Stock Company "Biocad", priority 2016, published 2019):
pIC50: −log10 of the molar value.

Legend:
[1] = biological target: T1, recombinant Btk kinase enzyme (Homo sapiens, UniProt Q06187); experiment: In vitro inhibition of Btk kinase activity (ADP-Glo); format: biochemical; details: Table 8; ADP-Glo; read-out: IC50 kinase BTK
T1 construct: purchased SignalChem B10-10H
Description: To assess Btk kinase activity described herein, SignalChem kinase system was used. Btk kinase activity was determined in the reaction between recombinant Btk kinase enzyme (SignalChem #B10-10H) and Poly (4:1 Glu, Tyr) peptide substrate in the presence of the inhibitor.
Staurosporine (Abcam Biochemicals, ab146588) was used as a reference inhibitor and 0.1% DMSO in the reaction buffer—as a negative control. The solution of 0.5 mg/mL peptide substrate and 50 &M ATP in the same buffer were added; the solution was incubated for 180 minutes at 37° C. To detect the amount of ATP taken up during the kinase reaction, the equivalent amount of ADP (from the ADP Glo Detection Kit (Promega, #V9101)) was used according to the protocol. The reaction mixture was equilibrated to room temperature. 25 µL of ADP-Glo Reagent were added into each well; the plate was incubated for 40 minutes. 50 μL of Kinase Detection Reagent were added; the plate was incubated for 30 minutes. The luminescence was measured with multimode plate reader (Tecan Infinite M200Pro, Switzerland). IC50 values were calculated using Magellan 7.2 software (Tecan, Switzerland) approximating experimental points by four-parameter logistic model with the optimization by Levenberg-Marquardt.

[2] = tested on: Z-138 (mantle cell lymphoma); experiment: Antiproliferative activity, Z-138 cells (Alamar Blue); format: cell-based; details: Homo sapiens, Table 10, 72 h, average of several tests
Summary of the method: (§1)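 Readout: Alamar Blue fluorescence (540 nm excitation, 590 nm emission) after 14-16 h reagent incubation, following 72 h compound exposure at 37 °C. About 3*10^4 cells/well were grown in 10% FBS RPMI-1640. IC50 values were fitted by a four-parameter logistic model.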

[3] = Stability in human blood plasma; details: 10 μM in pooled human blood plasma, incubated 4 hours at 37° C.
[4] = tested on: Mino (mantle cell lymphoma); experiment: Antiproliferative activity, Mino cells (Alamar Blue); format: cell-based; details: Homo sapiens, Table 10, 72 h, average of several tests
Summary of the method: as §1

[5] = tested on: DOHH2 (follicular lymphoma); experiment: Antiproliferative activity, DOHH2 cells (Alamar Blue); format: cell-based; details: Homo sapiens, DOHH-2, Table 10, 72 h, average of several tests
Description: Antiproliferative activity of BTK inhibitors was measured in cell-based bioassay on B-cells cultures: Mino (mantle cell lymphoma, ATCC® CRL-3000™), Z-138 (mantle cell lymphoma, ATCC® CRL-3001™) and DOHH2 (follicular lymphoma, Creative Bioarray CSC-C0219) using cell viability reagent Alamar Blue (Invitrogen, #DAL 1100). Cells were cultured in 10% FB S-supplemented (HyClone, #SH3008803/Gibco, #16140-071) RPMI-1640 (PanEco, #S330p) for at least 1 passage after thawing, washed with PBS and passaged in 96-well culture plates (Corning, #3599) with growth medium with 10% FBS (HyClone, #SH3008803/Gibco, #16140-071) and antibiotic (50 μg/ml of gentamicin (Biolot, #1.3.16))≈3*10^4 cells in 50 μl of medium per well.
The compounds were dissolved in DMSO and diluted with the assay medium to final concentrations ranging from […]. 150 μl of each diluted compound were then added to each well (final concentration of DMSO was less than 1%) and incubated at 37° C. in an incubator under 5% of CO2 for 72 h. After incubation, 20 μl of Alamar Blue reagent (Invitrogen, #DAL1100) were added to each well. The plates were shaked on an orbital shaker (Biosan, Latvia) and then incubated for 14-16 hours at 37° C. in the incubator.
The number of living cells were estimated, measuring the fluorescence signal at the excitation wavelength (REx) of 540 nm and the emission wavelength (λEm) of 590 nm on a microplate reader (Tecan Infinite M200Pro, Switzerland).
For each compound, IC50 was calculated using Magellan 7.2 software (Tecan, Switzerland) approximating experimental points by four-parameter logistic model with the optimization by Levenberg-Marquardt.

[6] = Permeability through the monolayer of Caco-2 cells; format: in vitro ADME; details: human; for Papp A→B at 2 h, 10 μM / Papp B→A at 2 h, 10 μM: 2 h at 37° C.; for efflux ratio at 2 h, 10 μM: read-out: efflux (Papp B-A/Papp A-B)
Excerpt: Assessment of permeability through the monolayer of Caco-2 cells allows to evaluate the ability of the candidate compounds to penetrate through biological membranes by active and passive transport.
Caco-2, the cells of the intestinal epithelium, had been cultured in transwell plate inserts with the filters (with pores of 0.4 μm, BD Falcon with High Density, #353495) for 21 days, and then the integrity of the monolayer were estimated with Lucifer Yellow dye (Sigma-Aldrich, USA) by standard protocol. When setting the A→B transfer, solutions of test substances were added in a buffer with pH 6.5 (Hanks solution, 10 mM HEPES, 15 mM glucose solution) with the concentration of 10 μM into the upper chamber; the lower chamber was filled with a buffer with pH 7.4 (Hanks solution, 10 mM HEPES, 15 mM glucose solution, 1% BSA). When setting B→A transfer, the upper chamber was filled with the buffer with pH 6.5, and solutions of the test substances were added in the buffer with pH 7.4 at the concentration of 10 μM in the lower chamber. Propranolol was used as a control substance (as it has high permeability).
We used gradient elution (1 mL/min flow rate). We determined the areas of peaks corresponding to the compounds. On the basis of peak areas in the calibration standards we determined the concentration of compound in the initial solution and in the samples from the wells of the upper and lower chambers.
Papp, permeability through the cell layer, was calculated using the following formula:
Papp=(C(t)*V)/(C(0)*t*Area), where
Papp is the effective constant of permeability, m/s V is the volume of solution (0.8 ml in A→B test, 0.2 ml in B→A test), ml Area is the surface area of the membrane (0.33 cm^2), cm^2 t is the time of incubation (7200 sec), sec C(0) is the concentration of the initial solution, μM C(t) is the concentration of the solution after 2 hours (the concentration in the sample from the well of the lower chamber in A→B test; the concentration in the sample from the well of the top chamber in B→A test), μM
The value was calculated with the following formula:
efflux=Papp B-A/Papp A-B, where
Papp A-B is the value of the permeability in the direct test (A→B); Papp B-A is the value of the permeability in the backward test in (B→A).

[7] = General cytotoxicity on HepG2 cells (CC50; therapeutic index CC50 HepG2/IC50 Mino); format: cell-based; details: human, HepG2 cells (hepatocellular carcinoma); Table 10; 72 hours, Alamar Blue; average of several tests
Summary of the method: (§2)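 Alamar Blue viability after 72 h exposure to compounds (final 200 μM–4 μM) gave CC50; HepG2 plated 2*10^4/well in DMEM 24 h beforehand. Therapeutic index expressed as ratio of HepG2 CC50 to Mino antiproliferative IC50.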

[8] = tested on: HepG2 cells (hepatocellular carcinoma); experiment: as above; format: cell-based; details: Table 10; therapeutic index
Summary of the method: as §2

[9] = Chemical stability in artificial gastric fluid (SGF without enzymes); details: 10 μM in SGF without enzymes, pH=1.4, 37° C.

T1 sequence (Q06187 whole entry): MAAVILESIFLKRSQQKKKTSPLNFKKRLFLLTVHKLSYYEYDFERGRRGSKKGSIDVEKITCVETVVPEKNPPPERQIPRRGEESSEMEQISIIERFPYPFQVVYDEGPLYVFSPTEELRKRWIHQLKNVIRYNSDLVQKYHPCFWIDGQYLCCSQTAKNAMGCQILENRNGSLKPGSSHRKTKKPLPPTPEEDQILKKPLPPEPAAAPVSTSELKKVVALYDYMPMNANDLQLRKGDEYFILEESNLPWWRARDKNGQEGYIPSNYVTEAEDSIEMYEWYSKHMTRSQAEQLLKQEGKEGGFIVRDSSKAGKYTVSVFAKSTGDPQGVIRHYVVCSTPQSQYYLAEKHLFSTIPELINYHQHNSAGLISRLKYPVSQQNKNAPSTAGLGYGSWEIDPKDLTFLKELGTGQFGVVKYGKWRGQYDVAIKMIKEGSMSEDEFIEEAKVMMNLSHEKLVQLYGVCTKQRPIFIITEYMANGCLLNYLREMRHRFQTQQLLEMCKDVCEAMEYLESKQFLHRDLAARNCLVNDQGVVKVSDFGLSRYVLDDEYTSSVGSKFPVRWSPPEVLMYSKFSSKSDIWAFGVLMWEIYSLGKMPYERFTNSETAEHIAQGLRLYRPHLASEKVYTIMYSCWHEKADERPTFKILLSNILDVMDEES

C=CC(=O)N1CCC[C@@H](n2nc(-c3ccc(Oc4ccncc4)cc3)c3c(N)ncc(C(N)=O)c32)C1 [BCD-BTK-135, (R)-1-(1-acryloylpiperidin-3-yl)-4-amino-3-(4-(pyridin-4-yloxy)phenyl)-1H-pyrazolo[4,3-c]pyridin-7-carboxamide]
pIC50 [1]: 8.20

C=CC(=O)N1CCC[C@@H](n2nc(-c3ccc(Oc4ccncc4)cc3)c3cncc(F)c32)C1 [BCD-BTK-211, (R)-1-(3-(7-fluoro-3-(4-(pyridin-4-yloxy)phenyl)-1H-pyrazolo[4,3-c]pyridin-1-yl)piperidin-1-yl)prop-2-en-1-one]
pIC50 [2]: 4.76 | Amount of substance in the sample, % (stability in human blood plasma) [3]: 94.8% | pIC50 [4]: 5.25 | pIC50 [5]: 4.64 | Papp A→B at 2 h, 10 μM [6]: 19.2 ×10⁻⁶ cm/s | Papp B→A at 2 h, 10 μM [6]: 3.55 ×10⁻⁶ cm/s | efflux ratio at 2 h, 10 μM [6]: 0.18 | CC50 at 72 h [7]: 45.2 µM | CC50 (HepG2)/IC50 (Mino) [8]: 7.97

C=CC(=O)N1CCC[C@@H](n2nc(-c3ccc(Oc4cccnc4C#N)cc3)c3cncc(C#N)c32)C1 [BCD-BTK-216, (R)-1-(1-acryloylpiperidin-3-yl)-3-(4-(2-cyanopyridin-3-yloxy)phenyl)-1H-pyrazolo[4,3-c]pyridine-7-carbonitrile]
pIC50 [2]: 4.92 | Amount of substance in the sample, % (stability in human blood plasma) [3]: 80.4% | pIC50 [4]: 5.67 | pIC50 [5]: 5.02 | Papp A→B at 2 h, 10 μM [6]: 29.6 ×10⁻⁶ cm/s | Papp B→A at 2 h, 10 μM [6]: 8.72 ×10⁻⁶ cm/s | efflux ratio at 2 h, 10 μM [6]: 0.29 | CC50 at 72 h [7]: 40.1 µM | CC50 (HepG2)/IC50 (Mino) [8]: 18.77

C=CC(=O)N1CCC[C@@H](n2nc(-c3ccc(Oc4ccncc4C#N)cc3)c3cncc(F)c32)C1 [BCD-BTK-217, (R)-4-(4-(1-(1-acryloylpiperidin-3-yl)-7-fluoro-1H-pyrazolo[4,3-c]pyridin-3-yl)phenoxy)nicotinonitrile]
pIC50 [2]: 4.86 | Amount of substance in the sample, % (stability in human blood plasma) [3]: 90.8% | pIC50 [4]: 4.76 | pIC50 [5]: 4.79 | Papp A→B at 2 h, 10 μM [6]: 37.3 ×10⁻⁶ cm/s | Papp B→A at 2 h, 10 μM [6]: 18.9 ×10⁻⁶ cm/s | efflux ratio at 2 h, 10 μM [6]: 0.51 | CC50 at 72 h [7]: 40.1 µM | CC50 (HepG2)/IC50 (Mino) [8]: 2.31

C=CC(=O)N1CCC[C@@H](n2nc(-c3ccc(Oc4cncc(C(N)=O)c4)cc3)c3cncc(Cl)c32)C1 [BCD-BTK-222, 5-(4-{7-chloro-1-[(3R)-1-(prop-2-enoyl)piperidin-3-yl]-1H-pyrazolo[4,3-c]pyridin-3-yl}phenoxy)pyridine-3-carboxamide]
pIC50 [2]: 4.58 | Amount of substance in the sample in % (chemical stability) [9]: 100% | Amount of substance in the sample, % (stability in human blood plasma) [3]: 100.0% | pIC50 [4]: 4.71 | pIC50 [5]: 4.58 | Papp A→B at 2 h, 10 μM [6]: 5.06 ×10⁻⁶ cm/s | Papp B→A at 2 h, 10 μM [6]: 6.97 ×10⁻⁶ cm/s | efflux ratio at 2 h, 10 μM [6]: 1.38 | CC50 at 72 h [7]: 50.2 µM | CC50 (HepG2)/IC50 (Mino) [8]: 2.60

C=CC(=O)N1CCC[C@@H](n2nc(-c3ccc(C(=O)Nc4ncccc4F)cc3)c3cncc(Cl)c32)C1 [BCD-BTK-226, (R)-4-(1-(1-acryloylpiperidin-3-yl)-7-chloro-1H-pyrazolo[4,3-c]pyridin-3-yl)-N-(3-fluoropyridin-2-yl)benzamide]
pIC50 [2]: 5.14 | Amount of substance in the sample in % (chemical stability) [9]: 100% | Amount of substance in the sample, % (stability in human blood plasma) [3]: 84.5% | pIC50 [4]: 5.22 | pIC50 [5]: 5.09 | Papp A→B at 2 h, 10 μM [6]: 12.1 ×10⁻⁶ cm/s | Papp B→A at 2 h, 10 μM [6]: 5.5 ×10⁻⁶ cm/s | efflux ratio at 2 h, 10 μM [6]: 0.45 | CC50 at 72 h [7]: 19 µM | CC50 (HepG2)/IC50 (Mino) [8]: 3.19

C=CC(=O)N1CCC[C@@H](n2nc(-c3ccc(C(=O)Nc4ccccn4)cc3)c3cncc(F)c32)C1 [BCD-BTK-243, (R)-4-(1-(1-acryloylpiperidin-3-yl)-7-fluoro-1H-pyrazolo[4,3-c]pyridin-3-yl)-N-(pyridin-2-yl)benzamide]
Amount of substance in the sample in % (chemical stability) [9]: 99.6% | pIC50 [1]: 7.53

C=CC(=O)N1CCC[C@@H](n2nc(-c3ccc(C(=O)Nc4ccc(F)cn4)cc3)c3cncc(F)c32)C1 [BCD-BTK-244, (R)-4-(1-(1-acryloylpiperidin-3-yl)-7-fluoro-1H-pyrazolo[4,3-c]pyridin-3-yl)-N-(5-fluoropyridin-2-yl)benzamide]
Amount of substance in the sample in % (chemical stability) [9]: 100% | pIC50 [1]: 7.25

C=CC(=O)N1CCC[C@@H](n2nc(-c3ccc(C(=O)Nc4cc(C(F)(F)CCC)ccn4)cc3)c3cncc(C#N)c32)C1 [BCD-BTK-268, (R)-4-(1-(1-acryloylpiperidin-3-yl)-7-cyano-1H-pyrazolo[4,3-c]pyridin-3-yl)-N-(4-(1,1-difluorobutyl)pyridin-2-yl)benzamide]
pIC50 [2]: 4.11 | Amount of substance in the sample in % (chemical stability) [9]: 99.3% | Amount of substance in the sample, % (stability in human blood plasma) [3]: 91.0% | pIC50 [4]: 4.99 | pIC50 [5]: 4.57 | CC50 at 72 h [7]: > 100 µM | CC50 (HepG2)/IC50 (Mino) [8]: >9.69
